Experimental data: ChEMBL document CHEMBL4507263, “Data for DCP probe BAY-474” (2021)

Tests used:
[1] = target: Activin receptor type-1B (Homo sapiens) (UniProt P36896); experiment: ALK4 (h) Millipore kinase activity assay; details: Compound concentration 1.0 uM
[2] = target: Calcium/calmodulin-dependent protein kinase type II subunit gamma (Homo sapiens) (UniProt Q13555); experiment: CaMKIIgamma (h) Millipore kinase activity assay; details: Compound concentration 1.0 uM
[3] = target: Glutamate NMDA receptor (Rattus norvegicus) (UniProt P35439+Q00959+Q00960+Q00961+Q62645+Q8VHN2+Q9R1M7); details: Compound concentration 10.0 uM
[4] = target: Gamma-aminobutyric acid type B receptor subunit 1 (Homo sapiens) (UniProt Q9UBS5); experiment: Inhibition of GABAB1A at compound concentration of 10.0 uM in the Eurofins-Panlabs radioligand binding assay (Eurofins_assay_228610); design: ligand concentration 4 nM; details: Compound concentration 10.0 uM
[5] = target: Prostaglandin E2 receptor EP4 subtype (Homo sapiens) (UniProt P35408); experiment: Inhibition of Prostanoid EP4 at 10 µM in the Eurofins-Panlabs radioligand binding assay (Eurofins_assay_268420); design: ligand concentration 1 nM; details: Compound concentration 10.0 uM
[6] = target: Aurora kinase A (Homo sapiens) (UniProt O14965); experiment: Aurora-A( h) Millipore kinase activity assay; details: Compound concentration 1.0 uM
[7] = target: Serine/threonine-protein kinase WNK2 (Homo sapiens) (UniProt Q9Y3S1); experiment: WNK2 (h) Millipore kinase activity assay; details: Compound concentration 1.0 uM
Rattus norvegicus = organism: Rattus norvegicus; experiment: Inhibition of Glutamate, NMDA, Phencyclidine at 10 µM in the Eurofins-Panlabs radioligand binding assay (Eurofins_assay_233000); assay type: protein-complex assay; details: Compound concentration 10.0 uM
[8] = target: Serine/threonine-protein kinase 3 (Homo sapiens) (UniProt Q13188); experiment: MST2 (h) Millipore kinase activity assay; details: Compound concentration 1.0 uM
[9] = target: Fibroblast growth factor receptor 3 (Homo sapiens) (UniProt P22607); experiment: FGFR3 (h) Millipore kinase activity assay; details: Compound concentration 1.0 uM
[10] = target: Sodium-dependent noradrenaline transporter (Homo sapiens) (UniProt P23975); details: Compound concentration 10.0 uM
[11] = target: Serine/threonine-protein kinase TAO1 (Homo sapiens) (UniProt Q7L7X3); experiment: TAO1 (h) Millipore kinase activity assay; details: Compound concentration 1.0 uM
[12] = target: Tyrosine-protein kinase receptor UFO (Homo sapiens) (UniProt P30530); experiment: Axl (h) Millipore kinase activity assay; details: Compound concentration 1.0 uM
[13] = target: Mitogen-activated protein kinase 9 (Homo sapiens) (UniProt P45984); experiment: JNK2alpha2 (h) Millipore kinase activity assay; details: Compound concentration 1.0 uM
[14] = target: D(1A) dopamine receptor (Homo sapiens) (UniProt P21728); details: Compound concentration 10.0 uM
[15] = target: Glucocorticoid receptor (Homo sapiens) (UniProt P04150); experiment: Glucocorticoid Eurofins-Panlabs radioligand binding assay; details: Compound concentration 10.0 uM
[16] = target: Mitogen-activated protein kinase kinase kinase 9 (Homo sapiens) (UniProt P80192); experiment: MLK1 (h) Millipore kinase activity assay; details: Compound concentration 1.0 uM
[17] = target: Serine/threonine-protein kinase PAK 3 (Homo sapiens) (UniProt O75914); experiment: PAK3 (h) Millipore kinase activity assay; details: Compound concentration 1.0 uM
[18] = target: Dual specificity mitogen-activated protein kinase kinase 6 (Homo sapiens) (UniProt P52564); details: Compound concentration 1000.0 nM
[19] = target: Casein kinase I isoform delta (Homo sapiens) (UniProt P48730); details: Compound concentration 1000.0 nM
[20] = target: GABA-A receptor; anion channel (Rattus norvegicus) (UniProt O09028+P15431+P18506+P18508+P19969+P20236+P23574+P23576+P28471+P28473+P30191+P62813+P63079+P63138+Q91ZM7+Q9ES14); details: Compound concentration 10.0 uM
[21] = target: Mitogen-activated protein kinase kinase kinase kinase 1 (Homo sapiens) (UniProt Q92918); details: Compound concentration 1000.0 nM
[22] = target: Calcium/calmodulin-dependent protein kinase type II subunit gamma (Homo sapiens) (UniProt Q13555); details: Compound concentration 1000.0 nM
[23] = target: Myosin-IIIb (Homo sapiens) (UniProt Q8WXR4); details: Compound concentration 1000.0 nM
[24] = test system: Receptor-type tyrosine-protein kinase FLT3 (Homo sapiens), P36888 [R834Q]; details: Compound concentration 1000.0 nM
[25] = target: Ribosomal protein S6 kinase alpha-4 (Homo sapiens) (UniProt O75676); details: Compound concentration 1000.0 nM
[26] = target: Testis-specific serine/threonine-protein kinase 3 (Homo sapiens) (UniProt Q96PN8); details: Compound concentration 1000.0 nM
[27] = target: Tyrosine-protein kinase ABL1 (Homo sapiens) (UniProt P00519); details: Compound concentration 1000.0 nM
[28] = target: Platelet-derived growth factor receptor alpha (Homo sapiens) (UniProt P16234); details: Compound concentration 1000.0 nM
[29] = target: Hepatocyte growth factor receptor (Homo sapiens, UniProt P08581); details: Compound concentration 1000.0 nM
[30] = target: Ephrin type-B receptor 3 (Homo sapiens) (UniProt P54753); details: Compound concentration 1000.0 nM
[31] = test system: Tyrosine-protein kinase ABL1 (Homo sapiens), P00519 [H396P]; details: Compound concentration 1000.0 nM
[32] = target: Dual specificity protein kinase CLK3 (Homo sapiens) (UniProt P49761); details: Compound concentration 1000.0 nM
[33] = target: Aurora kinase B (Homo sapiens) (UniProt Q96GD4); details: Compound concentration 1000.0 nM
[34] = target: Mitogen-activated protein kinase kinase kinase 6 (Homo sapiens) (UniProt O95382); details: Compound concentration 1000.0 nM
[35] = target: Tyrosine-protein kinase CSK (Homo sapiens) (UniProt P41240); details: Compound concentration 1000.0 nM
[36] = test system: Mast/stem cell growth factor receptor Kit (Homo sapiens), P10721 [V559D]; details: Compound concentration 1000.0 nM
[37] = target: Fibroblast growth factor receptor 2 (Homo sapiens) (UniProt P21802); details: Compound concentration 1000.0 nM
[38] = test system: Receptor-type tyrosine-protein kinase FLT3 (Homo sapiens), P36888 [K663Q]; details: Compound concentration 1000.0 nM
[39] = target: Phosphatidylinositol 4,5-bisphosphate 3-kinase catalytic subunit beta isoform (Homo sapiens) (UniProt P42338); details: Compound concentration 1000.0 nM
[40] = target: Phosphatidylinositol 3-kinase catalytic subunit type 3 (Homo sapiens) (UniProt Q8NEB9); details: Compound concentration 1000.0 nM
[41] = target: Aurora kinase C (Homo sapiens) (UniProt Q9UQB9); details: Compound concentration 1000.0 nM
[42] = target: Wee1-like protein kinase (Homo sapiens) (UniProt P30291); details: Compound concentration 1000.0 nM

Calcium/calmodulin-dependent protein kinase type II subunit gamma (Homo sapiens), sequence (Q13555 whole entry): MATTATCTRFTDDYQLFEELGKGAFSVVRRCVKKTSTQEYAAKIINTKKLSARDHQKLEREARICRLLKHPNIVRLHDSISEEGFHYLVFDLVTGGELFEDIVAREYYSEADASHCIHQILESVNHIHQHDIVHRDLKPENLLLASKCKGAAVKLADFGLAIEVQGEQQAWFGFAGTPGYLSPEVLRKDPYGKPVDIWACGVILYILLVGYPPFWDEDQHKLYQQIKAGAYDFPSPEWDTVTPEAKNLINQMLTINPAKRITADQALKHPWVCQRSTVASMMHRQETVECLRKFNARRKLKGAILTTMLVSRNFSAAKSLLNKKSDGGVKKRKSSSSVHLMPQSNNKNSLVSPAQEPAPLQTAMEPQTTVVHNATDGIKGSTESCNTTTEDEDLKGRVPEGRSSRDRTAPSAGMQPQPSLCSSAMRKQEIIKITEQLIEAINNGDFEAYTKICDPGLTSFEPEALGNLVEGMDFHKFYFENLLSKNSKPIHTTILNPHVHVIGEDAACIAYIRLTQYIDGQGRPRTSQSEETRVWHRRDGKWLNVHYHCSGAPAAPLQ
Mitogen-activated protein kinase kinase kinase kinase 1 (Homo sapiens), sequence (Q92918 whole entry, looked up): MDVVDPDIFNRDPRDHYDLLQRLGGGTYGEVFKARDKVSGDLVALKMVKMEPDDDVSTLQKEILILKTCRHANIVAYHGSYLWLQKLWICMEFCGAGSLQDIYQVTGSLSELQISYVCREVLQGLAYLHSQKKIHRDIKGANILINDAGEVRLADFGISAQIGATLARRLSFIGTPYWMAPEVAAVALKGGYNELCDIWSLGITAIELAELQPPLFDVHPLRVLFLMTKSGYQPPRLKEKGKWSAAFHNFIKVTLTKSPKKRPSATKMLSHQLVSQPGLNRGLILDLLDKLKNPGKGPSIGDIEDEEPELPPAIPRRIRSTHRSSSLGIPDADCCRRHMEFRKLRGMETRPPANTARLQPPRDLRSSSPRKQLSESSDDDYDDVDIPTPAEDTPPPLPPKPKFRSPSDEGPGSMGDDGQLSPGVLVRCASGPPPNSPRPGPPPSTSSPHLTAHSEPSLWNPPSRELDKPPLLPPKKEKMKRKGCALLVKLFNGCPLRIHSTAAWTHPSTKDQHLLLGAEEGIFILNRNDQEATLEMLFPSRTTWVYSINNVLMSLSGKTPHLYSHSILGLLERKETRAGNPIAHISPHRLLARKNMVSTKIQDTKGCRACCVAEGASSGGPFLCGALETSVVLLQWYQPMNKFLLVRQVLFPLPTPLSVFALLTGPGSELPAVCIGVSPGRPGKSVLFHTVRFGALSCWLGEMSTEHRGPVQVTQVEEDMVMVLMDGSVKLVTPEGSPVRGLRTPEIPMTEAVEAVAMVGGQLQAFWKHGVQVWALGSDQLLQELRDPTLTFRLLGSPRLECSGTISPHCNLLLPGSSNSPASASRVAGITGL
Tyrosine-protein kinase receptor UFO (Homo sapiens), sequence (P30530 whole entry): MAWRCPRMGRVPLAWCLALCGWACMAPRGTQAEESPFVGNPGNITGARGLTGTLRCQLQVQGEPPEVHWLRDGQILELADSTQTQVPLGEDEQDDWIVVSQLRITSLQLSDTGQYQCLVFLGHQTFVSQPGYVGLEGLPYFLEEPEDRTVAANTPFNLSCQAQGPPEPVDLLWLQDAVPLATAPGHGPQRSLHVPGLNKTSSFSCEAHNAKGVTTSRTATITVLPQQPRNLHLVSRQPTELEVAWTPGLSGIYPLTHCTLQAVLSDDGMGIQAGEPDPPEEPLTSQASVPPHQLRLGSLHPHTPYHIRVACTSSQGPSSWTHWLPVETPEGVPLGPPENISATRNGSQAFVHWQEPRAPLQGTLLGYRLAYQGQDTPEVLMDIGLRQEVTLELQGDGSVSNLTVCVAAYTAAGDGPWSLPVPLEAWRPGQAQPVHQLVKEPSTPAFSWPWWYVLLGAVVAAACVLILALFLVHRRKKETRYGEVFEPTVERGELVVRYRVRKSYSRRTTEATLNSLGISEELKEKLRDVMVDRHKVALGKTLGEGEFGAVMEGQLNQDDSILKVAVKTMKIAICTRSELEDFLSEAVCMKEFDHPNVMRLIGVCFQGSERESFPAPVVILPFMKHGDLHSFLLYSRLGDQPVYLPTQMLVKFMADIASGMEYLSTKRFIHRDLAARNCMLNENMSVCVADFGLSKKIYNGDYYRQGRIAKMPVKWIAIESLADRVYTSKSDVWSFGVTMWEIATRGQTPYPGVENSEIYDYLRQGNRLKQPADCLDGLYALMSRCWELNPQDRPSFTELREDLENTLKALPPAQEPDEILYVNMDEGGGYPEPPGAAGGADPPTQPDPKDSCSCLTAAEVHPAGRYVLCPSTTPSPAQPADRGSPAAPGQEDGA
Dual specificity mitogen-activated protein kinase kinase 6 (Homo sapiens), sequence (P52564 whole entry, canonical isoform): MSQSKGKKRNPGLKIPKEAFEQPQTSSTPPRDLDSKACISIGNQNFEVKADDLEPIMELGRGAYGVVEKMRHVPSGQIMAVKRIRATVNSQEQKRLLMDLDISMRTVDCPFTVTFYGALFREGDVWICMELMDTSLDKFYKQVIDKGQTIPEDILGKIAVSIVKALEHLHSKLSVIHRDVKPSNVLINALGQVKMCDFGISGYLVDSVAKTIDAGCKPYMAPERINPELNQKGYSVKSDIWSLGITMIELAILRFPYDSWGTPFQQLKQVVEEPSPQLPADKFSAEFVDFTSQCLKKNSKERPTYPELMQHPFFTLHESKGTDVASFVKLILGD
Serine/threonine-protein kinase PAK 3 (Homo sapiens), sequence (O75914 whole entry, looked up): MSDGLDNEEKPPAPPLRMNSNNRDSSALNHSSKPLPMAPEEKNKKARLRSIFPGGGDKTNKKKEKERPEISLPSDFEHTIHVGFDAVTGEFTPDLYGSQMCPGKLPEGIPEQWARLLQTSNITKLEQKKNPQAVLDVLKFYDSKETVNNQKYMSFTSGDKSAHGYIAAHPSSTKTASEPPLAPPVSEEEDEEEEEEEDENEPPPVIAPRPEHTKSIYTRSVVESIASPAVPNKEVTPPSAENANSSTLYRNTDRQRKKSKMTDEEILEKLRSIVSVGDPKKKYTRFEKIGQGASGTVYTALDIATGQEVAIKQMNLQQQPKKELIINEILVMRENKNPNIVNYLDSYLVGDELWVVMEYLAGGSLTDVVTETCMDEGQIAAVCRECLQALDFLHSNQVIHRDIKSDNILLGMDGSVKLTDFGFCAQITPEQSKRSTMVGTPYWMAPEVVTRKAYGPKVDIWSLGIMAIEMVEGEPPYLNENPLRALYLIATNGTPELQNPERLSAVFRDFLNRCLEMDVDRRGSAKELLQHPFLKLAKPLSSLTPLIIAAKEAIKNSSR
Prostaglandin E2 receptor EP4 subtype (Homo sapiens), sequence (P35408 whole entry): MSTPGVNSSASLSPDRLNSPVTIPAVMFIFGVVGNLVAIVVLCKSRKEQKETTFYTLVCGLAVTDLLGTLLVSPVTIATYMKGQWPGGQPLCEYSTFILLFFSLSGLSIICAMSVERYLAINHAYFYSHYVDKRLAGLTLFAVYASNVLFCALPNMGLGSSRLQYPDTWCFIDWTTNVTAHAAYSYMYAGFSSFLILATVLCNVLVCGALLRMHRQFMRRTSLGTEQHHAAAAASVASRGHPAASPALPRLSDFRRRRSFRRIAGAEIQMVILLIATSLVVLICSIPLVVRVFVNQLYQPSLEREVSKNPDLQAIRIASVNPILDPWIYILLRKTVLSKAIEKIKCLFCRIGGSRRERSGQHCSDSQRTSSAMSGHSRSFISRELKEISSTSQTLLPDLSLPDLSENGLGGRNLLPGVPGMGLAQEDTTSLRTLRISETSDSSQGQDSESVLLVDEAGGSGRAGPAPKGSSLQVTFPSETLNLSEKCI
Mast/stem cell growth factor receptor Kit (Homo sapiens), P10721 [V559D], sequence (P10721 whole entry V559D): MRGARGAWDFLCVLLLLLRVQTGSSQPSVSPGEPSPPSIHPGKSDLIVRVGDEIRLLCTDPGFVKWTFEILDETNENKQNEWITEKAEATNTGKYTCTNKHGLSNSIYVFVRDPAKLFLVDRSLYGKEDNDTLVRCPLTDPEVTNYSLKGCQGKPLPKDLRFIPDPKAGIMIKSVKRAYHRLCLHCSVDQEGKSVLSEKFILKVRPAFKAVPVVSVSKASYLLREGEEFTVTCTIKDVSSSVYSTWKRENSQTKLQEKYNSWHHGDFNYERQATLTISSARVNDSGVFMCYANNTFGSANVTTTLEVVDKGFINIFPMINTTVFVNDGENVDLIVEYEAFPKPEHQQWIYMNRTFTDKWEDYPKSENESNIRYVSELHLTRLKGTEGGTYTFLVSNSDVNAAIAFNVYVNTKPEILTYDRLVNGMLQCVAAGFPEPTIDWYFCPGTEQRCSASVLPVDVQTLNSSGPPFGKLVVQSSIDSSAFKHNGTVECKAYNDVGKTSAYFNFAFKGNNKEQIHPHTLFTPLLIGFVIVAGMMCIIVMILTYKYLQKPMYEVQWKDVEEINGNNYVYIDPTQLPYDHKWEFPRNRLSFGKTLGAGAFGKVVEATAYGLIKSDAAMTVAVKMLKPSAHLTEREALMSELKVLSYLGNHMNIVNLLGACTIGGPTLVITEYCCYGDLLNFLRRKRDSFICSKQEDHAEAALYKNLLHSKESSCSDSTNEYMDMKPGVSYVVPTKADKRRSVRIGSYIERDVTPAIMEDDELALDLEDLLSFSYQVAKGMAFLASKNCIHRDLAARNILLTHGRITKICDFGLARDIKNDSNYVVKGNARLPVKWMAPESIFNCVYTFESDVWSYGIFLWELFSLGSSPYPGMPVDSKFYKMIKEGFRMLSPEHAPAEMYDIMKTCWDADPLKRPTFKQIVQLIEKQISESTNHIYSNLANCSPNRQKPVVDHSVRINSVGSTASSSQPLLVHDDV
Aurora kinase B (Homo sapiens), sequence (Q96GD4 whole entry): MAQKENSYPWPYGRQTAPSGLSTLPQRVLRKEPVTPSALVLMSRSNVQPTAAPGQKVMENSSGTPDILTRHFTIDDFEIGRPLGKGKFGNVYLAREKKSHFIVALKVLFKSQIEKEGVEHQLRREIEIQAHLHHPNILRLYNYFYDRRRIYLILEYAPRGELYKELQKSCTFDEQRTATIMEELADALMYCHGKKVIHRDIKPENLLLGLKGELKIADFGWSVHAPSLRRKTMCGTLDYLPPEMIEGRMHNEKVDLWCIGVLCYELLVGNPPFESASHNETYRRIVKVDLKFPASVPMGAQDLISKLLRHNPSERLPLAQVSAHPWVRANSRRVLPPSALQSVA

CC1=C(C#N)C(c2ccc3[nH]nc(C)c3c2)C(C#N)=C(C)N1 [BAY-474]
inhibition [1]: 4%
inhibition [2]: 2%
inhibition [3]: 9%
inhibition [4]: 0%
inhibition [5]: 19%
inhibition [6]: 40%
inhibition [7]: -8%
inhibition (Rattus norvegicus): 4%
inhibition [8]: 7%
inhibition [9]: 10%
inhibition [10]: 6%
inhibition [11]: -6%
inhibition [12]: 12%
inhibition [13]: 17%
inhibition [14]: 3%
inhibition [15]: 12%
inhibition [16]: -1%
inhibition [17]: -8%

CC1=C(C#N)[C@@H](c2ccc3[nH]nc(C)c3c2)C(C#N)=C(c2ccc(Cl)cc2)N1 [BAY-827]
residual activity [18]: 100%
residual activity [19]: 100%
inhibition [20]: 16.9%
residual activity [21]: 93.1%
residual activity [22]: 100%
residual activity [23]: 78%
residual activity [24]: 100%
residual activity [25]: 81.4%
residual activity [26]: 100%
residual activity [27]: 52.6%
residual activity [28]: 100%
residual activity [29]: 17.2%
residual activity [30]: 100%
residual activity [31]: 79.9%
residual activity [32]: 100%
residual activity [33]: 82.9%
residual activity [34]: 83.2%
residual activity [35]: 100%
residual activity [36]: 100%
residual activity [37]: 74.3%
residual activity [38]: 100%
residual activity [39]: 100%
residual activity [40]: 100%
residual activity [41]: 100%
residual activity [42]: 100%
